Assays:
mPGES-1 [1] = molecular target: T1, mPGES-1 (Homo sapiens, UniProt O14684); assay: A549 cell-based assay (PGE2 formation, IL-1β stimulated, 50% human serum); parameters: host or cells: A549 cells; details: A549 cells, IL-1β 5 ng/ml, 20-24 h, Table B, read-out: mPGES-1 inhibitory effect, IC50, cell assay
T1 sequence (O14684 1-152): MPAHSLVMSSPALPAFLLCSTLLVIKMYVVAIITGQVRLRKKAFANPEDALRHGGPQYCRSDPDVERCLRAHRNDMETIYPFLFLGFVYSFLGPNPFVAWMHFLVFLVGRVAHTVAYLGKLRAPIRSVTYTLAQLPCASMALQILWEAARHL
Procedure: Although the enzymatic assay is a high throughput assay the disadvantage is that it uses a recombinant protein which is not in its natural environment. Accordingly a cellular assay was established in which a cell line of human origin (A549) expressing the mPGES-1 protein was used. In addition in order to mimic the situation in humans in which compounds can be bound to plasma proteins 50% human serum is added in the assay. By having the combination of testing mPGES-1 in a cellular environment and the presence of 50% human serum this assay has a higher relevance to judge the therapeutic potential of a mPGES-inhibitor than the pure enzyme assay.
A549 cells (ATCC: CCL-185) are grown to about 90% confluence in F-12K Nutrient Mixture (Kaighn's Mod. Gibco) containing 10% FBS in a humified incubator at 37° C. and 5% CO2. Cells were detached using Trypsin-EDTA. A549 cells were seeded in a 384-well collagene plate at a density of 7000 cells/well (50 μl) in F-12 medium containing 1% Penicillin-Streptomycin and 50% human serum. The cells were allowed to attach for 3-4 h. After that the cells were incubated for 20-24 h in F-12k medium supplemented with 50% human serum, 1% Penicillin-Streptomycin and containing IL-1β at a final concentration of 5 ng/ml as well as 10 nM arachidonic acid in the presence of a vehicle or a test compound. The total volume is 100 μl.
Concentrations of PGE2 in the cell free medium (10 μl) were measured using a commercially available HTRF kit from Cisbio (as described above). The PGE2 formation in the absence of test compound was taken as 100%.
IC50 values were derived from at 6-8 point titrations using conventional software.

mPGES-1 [2] = molecular target: T1, mPGES-1; assay: mPGES-1 enzyme assay (HTRF detection of PGE2); type: biochemical; parameters: made in house; host or cells: Rosetta E. coli (membrane/microsome fraction); details: recombinant human mPGES-1 microsomes, PGH2 2 μM, Table A; read-out: mPGES-1 inhibitory effect, IC50, enzyme assay
Procedure: Microsomes from Rosetta E. coli bacteria expressing recombinant human mPGES-1 can be derived as described below:
Inoculate 5 ml LB with Ampicilin (50 μg/ml) and Chloramphenicol (34 μg/ml) with bacteria from freeze culture. Incubate 8 h at 37° C. with 200 rpm. Thereafter, inoculate 500-1000 ml LB containing Amp and Chloro with the 5 ml on culture and grow to OD640 of 0.8-1.0. Chill the culture to +4° C. before induction. Induce the culture with IPTG at a final concentration of 400 μM. Express the protein at room temp 18-23° C. with 200 rpm shaking over night.
The following steps can be performed on the following day: • 1. Spin down the cells in 250 ml centrifuge flasks for 15 min at 7000 rpm (Beckmann Coulte Avanti J-E centrifuge) • 2. Dissolve the pellet from 250 ml culture in 12.5 ml homogenization buffer • 3. (15 mM Tris-HCL pH8, 1 mM EDTA pH8, […], 2.5 mM GSH, 1 Tablet Protease inhibitor per 50 ml buffer) • 4. Disintegrate the cells by sonication, 5×10 seconds at 48% amplitude of a 750 W sonifier • 5. Add 2.5 ml MgCl2 (100 mM) and DNase 12.5 μl (0.8 mg/ml) and incubate on ice for 30 min • 6. Spin down the bacteria debris and save the supernatant, 7000 rpm for 15 min • 7. Isolate the protein containing membranes in the supernatant by ultracentrifugation 120000×g for 2 hour at 4° C. (Sorvall T880 rotor). • 8. Discard the supernatant and dissolve the pellet in 20 mM Potassium phosphate buffer pH 7.4 (KH2PO4 and K2HPO4) buffer by sonication (5×10 s, 30% of a 50 W sonifier) and aliquot the enzyme and store aliquots at −80° C.
Before each experiment is performed an aliquot of the enzyme is thawed and it can then be dissolved in 0.1 M Potassium phosphate buffer pH7.4 (KH2PO4 and K2HPO4) buffer containing 2.5 mM GSH.
The aim of this assay is the determine the affinity of a test compound for the mPGES-1 enzyme.
47 μl of recombinant human mPGES-1 (˜0.5 μg protein/well) containing microsomal suspension in a buffer containing GSH, (2.5 mmol/L L-Glutathione reduced, dissolved in 0.1 mol/L Phosphat Buffer pH 7.4) is dispensed in a 384-well plate and thereafter 1 μl of the test compound(s) is/are added and incubated for 25 minutes at room temperature. The enzyme reaction is started by the addition of 2 μl PGH2 (final conc. 2 μM) dissolved in water-free Diglyme. After 60 seconds the reaction is terminated by addition of a stop solution containing FeCl2 (10 μL 0.074 mol/l FeCl2). The samples are diluted between 1:25 in PBS (Phosphate Buffered Saline). 10 μl of the diluted samples are transferred to 384-well low volume plate. In order to quantify the amount of PGE2 that has been formed, a homogenous time resolved fluorescent (HTRF) detecting of PGE2 has been performed using a commercially available kit from Cisbio according to the manufactures recommendation. This HTRF-based assay has been described in detail (see: Goedken et al., J Biomol Screen, 2008, 13(7), 619-625). Briefly, the diluted samples are mixed with 5 μl PGE2-d2 conjungate and 5 μl anti-PGE2 cryptate conjungate. After an incubation period of the plates over night, the fluorescence is measured by the use of an appropriate microplate reader.
The fluorescence of Europium cryptate (maxex=307 nm, maxem=620 nm) and d2-PGE2 (maxex=620 nm, maxem=665 nm) are measured.
The extent of the specific HTRF is measured as a ratio of the emission intensity at 665 nm vs. that at 620 nm at an excitation puls of 320 nm. The quantification plate contains also wells with different concentrations of PGE2 as calibration curve for the calculation of the PGE2 concentrations from the HTRF ratio values.
From all mPGES enzyme assay the background is subtracted and the IC50 is calculated over a nonlinear regression with conventional software.

SMILES | melting point [°C] | IC50 (mPGES-1 [1]) [nM] | IC50 (mPGES-1 [2]) [nM]
CC(C)(C)C(=O)NCc1ccc(Cl)c(Nc2nc3cc(C(=O)N[C@H]4CC[C@H](C(F)(F)F)CC4)c(N4CCC(C(F)(F)F)CC4)nc3n2CC(N)=O)c1Cl [Example 28] | 189 to 191 | 3 | 1
CC(C)(C)C(=O)NCc1ccc(Cl)c(Nc2nc3cc(C(=O)N[C@H]4CC[C@H](C(F)(F)F)CC4)c(N4CCC(C(F)(F)F)CC4)nc3n2CC(F)F)c1Cl [Example 27] | 172 to 174 | 2 | 3
CC(C)(C)C(=O)NCc1ccc(Cl)c(Nc2nc3cc(C(=O)N[C@H]4CC[C@H](C(F)(F)F)CC4)c(N4CCC(C(F)(F)F)CC4)nc3n2C2CC2)c1Cl [Example 26] | 198 to 200 | 7 | 4
Cn1c(Nc2c(Cl)ccc(CNC(=O)C(C)(C)C)c2Cl)nc2cc(C(=O)N[C@H]3CC[C@H](C(F)(F)F)CC3)c(N3CCC(C(F)(F)F)CC3)nc21 [Example 30, N-(trans-4-Trifluoromethyl-cyclohexyl)-2-{2,6-dichloro-3-[(2,2-dimethyl-propionylamino)-methyl]-phenylamino}-5-[4-trifluoromethyl-piperidinyl]-3-methyl-3H-imidazo[4,5-b]pyridine-6-carboxamide] | 185 to 186 | 1 | 3

— patent US8486968B2, “Compounds” (Boehringer Ingelheim International GmbH, priority 2010, dated 2013)
